For data set [1], the target named is T1, N-lysine methyltransferase SMYD2 (Homo sapiens, UniProt Q9NRG4). Kind of data set: Inhibition of V5-tagged SMYD2 (unknown origin) transfected in human MCF7 cells co-transfected with FLAG-tagged p53 assessed as reduction in p53 methylation at K370 residue at 10 to 30 uM measured after 20 hrs by immunoblot analysis. In kind it is cell-based. Background: In western blotting, separated proteins are transferred to a membrane and probed.

Data set [2] has as its target T1, N-lysine methyltransferase SMYD2. Put plainly: Inhibition of recombinant human SMYD2 (1 to 433 residues) expressed in baculovirus infected Sf9 insect cells at 40 uM using biotinylated-p53 peptide (361 to 380 residues) as substrate measured after 50 mins in presence of 70 nM [3H]-SAM by scintillation proximity assay relative to control.
Data set [3] shares this target. Kind of data set: Inhibition of recombinant human SMYD2 (1 to 433 residues) expressed in baculovirus infected Sf9 insect cells using biotinylated-p53 peptide (361 to 380 residues) as substrate measured after 50 mins in presence of 70 nM [3H]-SAM by scintillation proximity assay. For orientation: In a scintillation proximity assay essentially only radioactivity close to the scintillant gives light.

Data set [4] addresses Histone-lysine N-methyltransferase KMT5B (Homo sapiens) (UniProt Q4FZB7). Kind of data set: Inhibition of SUV420H1 (unknown origin) at 1 uM using biotin-labeled peptide as substrate and [3H]-SAM measured after 1 hr by scintillation proximity assay.
Data set [5] relates to MCF7. Put plainly: Cytotoxicity against human MCF7 cells up to 10 uM measured after 5 days by IncuCyte zoom live cell analysis. In kind it is cell-based. The following applies: mcf7, 120 h.
The species named for data set [6] is Homo sapiens. Kind of data set: Selectivity ratio of IC50 for SUV420H1 in human MCF7 cells to IC50 for V5-tagged SMYD2 (unknown origin) transfected in human MCF7 cells co-transfected with FLAG-tagged p53. It is filed as cell-based.
Data set [7] is filed under the species Homo sapiens. Kind of data set: Selectivity ratio of IC50 for SUV420H2 (unknown origin) to IC50 for recombinant human SMYD2 (1 to 433 residues) expressed in baculovirus infected Sf9 insect cells at 40 uM using biotinylated-p53 peptide (361 to 380 residues) as substrate measured after 50 mins in presence of 70 nM [3H]-SAM.
The target in data set [8] is T1, N-lysine methyltransferase SMYD2. Kind of data set: Inhibition of V5-tagged SMYD2 (unknown origin) transfected in human MCF7 cells co-transfected with FLAG-tagged p53 assessed as reduction in p53 methylation at K370 residue measured after 20 hrs by immunoblot analysis. It is filed as cell-based.
The subject of the next data set is U2OS. Put plainly: Cytotoxicity against human U2OS cells up to 10 uM measured after 5 days by IncuCyte zoom live cell analysis. In kind it is cell-based. The following applies: 120 h.
The target in data set [9] is T1, N-lysine methyltransferase SMYD2. Put plainly: Inhibition of V5-tagged SMYD2 (unknown origin) transfected in human U2OS cells co-transfected with FLAG-tagged p53 assessed as reduction in p53 methylation at K370 residue measured after 20 hrs by immunoblot analysis. In kind it is cell-based.
Data set [10] deals with Histone-lysine N-methyltransferase KMT5B (Homo sapiens) (UniProt Q4FZB7). Put plainly: Inhibition of SUV420H1 in human MCF7 cells assessed as decrease in H4K20me3 level up to 50 uM measured after 2 days by immunoblot analysis. In kind it is cell-based.
Chain of Histone-lysine N-methyltransferase KMT5B (Homo sapiens) (Q4FZB7 whole entry, looked up): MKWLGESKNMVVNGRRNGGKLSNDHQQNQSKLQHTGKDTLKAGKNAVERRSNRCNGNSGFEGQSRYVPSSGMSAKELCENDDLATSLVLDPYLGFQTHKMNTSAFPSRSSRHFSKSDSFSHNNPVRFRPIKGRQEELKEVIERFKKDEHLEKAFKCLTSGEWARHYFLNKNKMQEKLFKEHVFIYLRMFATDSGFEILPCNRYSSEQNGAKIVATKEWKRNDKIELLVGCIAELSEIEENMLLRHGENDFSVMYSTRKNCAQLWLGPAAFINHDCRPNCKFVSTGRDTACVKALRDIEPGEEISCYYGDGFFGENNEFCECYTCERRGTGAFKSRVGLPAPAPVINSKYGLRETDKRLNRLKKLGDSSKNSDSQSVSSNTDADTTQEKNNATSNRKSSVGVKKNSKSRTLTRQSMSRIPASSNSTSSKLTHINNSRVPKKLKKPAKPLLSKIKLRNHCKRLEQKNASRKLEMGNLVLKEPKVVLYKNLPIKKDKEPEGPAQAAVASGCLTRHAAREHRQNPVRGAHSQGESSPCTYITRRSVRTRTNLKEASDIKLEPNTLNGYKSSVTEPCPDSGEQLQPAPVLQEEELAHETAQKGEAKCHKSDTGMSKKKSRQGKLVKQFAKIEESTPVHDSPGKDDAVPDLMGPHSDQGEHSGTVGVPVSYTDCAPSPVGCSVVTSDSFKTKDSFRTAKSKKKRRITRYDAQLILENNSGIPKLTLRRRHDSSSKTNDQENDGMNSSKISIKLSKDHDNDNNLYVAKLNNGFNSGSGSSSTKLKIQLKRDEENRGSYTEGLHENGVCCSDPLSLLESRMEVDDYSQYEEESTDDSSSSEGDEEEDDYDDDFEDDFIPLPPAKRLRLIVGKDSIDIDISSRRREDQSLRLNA
Data set [11] concerns the target T1, N-lysine methyltransferase SMYD2. Put plainly: Inhibition of V5-tagged SMYD2 (unknown origin) transfected in human MCF7 cells co-transfected with FLAG-tagged p53 assessed as reduction in p53 methylation at K370 residue at 10 uM measured after 20 hrs by immunoblot analysis relative to control. In kind it is cell-based.
Data set [12] is filed under the species Homo sapiens. Put plainly: Selectivity ratio of IC50 for SUV420H1 (unknown origin) to IC50 for recombinant human SMYD2 (1 to 433 residues) expressed in baculovirus infected Sf9 insect cells at 40 uM using biotinylated-p53 peptide (361 to 380 residues) as substrate measured after 50 mins in presence of 70 nM [3H]-SAM.
In data set [13] the target is T1, N-lysine methyltransferase SMYD2. Kind of data set: Mixed inhibition of recombinant human SMYD2 (1 to 433 residues) expressed in baculovirus infected Sf9 insect cells using varying levels of biotinylated-p53 peptide (361 to 380 residues) as substrate measured after 50 mins in presence of 2 uM [3H]-SAM by scintillation proximity assay.
The target is the same in data set [14]. Kind of data set: Competitive inhibition of recombinant human SMYD2 (1 to 433 residues) expressed in baculovirus infected Sf9 insect cells using biotinylated-p53 peptide (361 to 380 residues) as substrate measured after 50 mins in presence of varying levels of [3H]-SAM by scintillation proximity assay.
Data set [15] shares this target. Kind of data set: Inhibition of V5-tagged SMYD2 (unknown origin) transfected in HEK293 cells co-transfected with FLAG-tagged p53 assessed as reduction in p53 methylation at K370 residue measured after 20 hrs by immunoblot analysis. It is filed as cell-based.
Data set [16] shares this target. Kind of data set: Inhibition of V5-tagged SMYD2 (unknown origin) transfected in human HeLa cells co-transfected with FLAG-tagged p53 assessed as reduction in p53 methylation at K370 residue measured after 20 hrs by immunoblot analysis. It is filed as cell-based.
The target in data set [17] is Histone-lysine N-methyltransferase KMT5C (Homo sapiens) (UniProt Q86Y97). Put plainly: Inhibition of SUV420H2 (unknown origin) at 1 uM using biotin-labeled peptide as substrate and [3H]-SAM measured after 1 hr by scintillation proximity assay.
Chain of Histone-lysine N-methyltransferase KMT5C (Homo sapiens) (Q86Y97 whole entry, looked up): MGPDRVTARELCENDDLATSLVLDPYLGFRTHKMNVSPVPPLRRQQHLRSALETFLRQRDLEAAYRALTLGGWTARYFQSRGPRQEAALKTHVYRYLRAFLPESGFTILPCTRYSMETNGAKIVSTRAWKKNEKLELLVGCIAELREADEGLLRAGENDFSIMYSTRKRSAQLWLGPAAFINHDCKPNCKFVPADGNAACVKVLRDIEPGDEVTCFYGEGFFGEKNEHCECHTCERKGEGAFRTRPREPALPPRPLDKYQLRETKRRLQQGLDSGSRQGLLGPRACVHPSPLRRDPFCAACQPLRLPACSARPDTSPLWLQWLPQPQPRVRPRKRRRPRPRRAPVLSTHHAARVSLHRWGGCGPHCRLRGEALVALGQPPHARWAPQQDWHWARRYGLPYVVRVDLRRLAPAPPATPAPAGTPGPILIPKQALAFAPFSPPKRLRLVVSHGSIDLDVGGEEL
Data set [18] has as its target T1, N-lysine methyltransferase SMYD2. Kind of data set: Inhibition of V5-tagged SMYD2 (unknown origin) transfected in human CAL120 cells co-transfected with FLAG-tagged p53 assessed as reduction in p53 methylation at K370 residue measured after 20 hrs by immunoblot analysis. It is filed as cell-based.
The nature of data set [19]: Lipophilicity, log D of the compound. In kind it is physicochemical. The following applies: octanol/water.
For data set [20], the species on record is Homo sapiens. Put plainly: Selectivity ratio of IC50 for SUV420H2 in human MCF7 cells to IC50 for V5-tagged SMYD2 (unknown origin) transfected in human MCF7 cells co-transfected with FLAG-tagged p53. It is filed as cell-based.
Data set [21] deals with Histone-lysine N-methyltransferase KMT5C (Homo sapiens) (UniProt Q86Y97). Put plainly: Inhibition of SUV420H2 in human MCF7 cells assessed as decrease in H4K20me3 level up to 50 uM measured after 2 days by immunoblot analysis. It is filed as cell-based.
In data set [22] the target is T1, N-lysine methyltransferase SMYD2. Put plainly: Inhibition of V5-tagged SMYD2 (unknown origin) transfected in human MDA-MB-231 cells co-transfected with FLAG-tagged p53 assessed as reduction in p53 methylation at K370 residue measured after 20 hrs by immunoblot analysis. It is filed as cell-based.
Data set [23] has the same target. Kind of data set: Inhibition of recombinant human SMYD2 (1 to 433 residues) expressed in baculovirus infected Sf9 insect cells using biotinylated-p53 peptide (361 to 380 residues) as substrate measured after 120 mins in presence of 20 uM [3H]-SAM by scintillation proximity assay.
Data set [24] can be described thus: Cytotoxicity against human TERA2D cells up to 10 uM measured after 5 days by IncuCyte zoom live cell analysis. In kind it is cell-based. The following applies: 120 h.
The target in data set [25] is T1, N-lysine methyltransferase SMYD2. Put plainly: Inhibition of V5-tagged SMYD2 (unknown origin) transfected in human MCF7 cells co-transfected with FLAG-tagged p53 assessed as reduction in p53 methylation at K370 residue at 30 uM measured after 20 hrs by immunoblot analysis. It is filed as cell-based.
The test system of data set [26] is MCF7. Kind of data set: Effect on total p53 level in human MCF7 cells co-transfected with V5-tagged SMYD2/FLAG-tagged p53 up to 30 uM measured after 20 hrs by immunoblot analysis. The following applies: mcf7, 20 h. In kind it is ADME, cell-based.
For data set [27], the target named is T1, N-lysine methyltransferase SMYD2. The following applies: MCF7, 1 uM.
Description: Inhibition of V5-tagged SMYD2 (unknown origin) transfected in human MCF7 cells co-transfected with FLAG-tagged p53 assessed as reduction in p53 methylation at K370 residue at 1 uM measured after 20 hrs by immunoblot analysis relative to control

Structures are written as SMILES. Active and inactive are the calls of the source. No cut-off for these calls is given here. Bounds are passed on as bounds.

These results are taken from ChEMBL document CHEMBL4373722, “Selective, Small-Molecule Co-Factor Binding Site Inhibition of a Su(var)3-9, Enhancer of Zeste, Trithorax Domain Containing Lysine Methyltransferase” (J Med Chem, 2019).

T1 sequence (Q9NRG4 whole entry): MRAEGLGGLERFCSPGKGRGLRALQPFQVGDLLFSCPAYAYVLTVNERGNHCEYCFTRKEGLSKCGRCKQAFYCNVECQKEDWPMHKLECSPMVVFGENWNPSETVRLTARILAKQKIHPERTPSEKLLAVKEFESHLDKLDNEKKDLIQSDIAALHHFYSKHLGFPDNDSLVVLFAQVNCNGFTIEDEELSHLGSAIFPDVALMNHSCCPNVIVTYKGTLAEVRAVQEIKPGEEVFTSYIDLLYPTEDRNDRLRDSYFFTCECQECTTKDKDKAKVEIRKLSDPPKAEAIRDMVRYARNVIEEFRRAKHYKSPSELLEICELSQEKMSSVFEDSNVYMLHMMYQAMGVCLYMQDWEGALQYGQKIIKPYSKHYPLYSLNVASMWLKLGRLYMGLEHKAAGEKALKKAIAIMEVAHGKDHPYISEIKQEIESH

Usually inhibition stands for the change of the read-out against control, counted positive when it falls. Consider `Cc1cc2c(ncn2C2(C)CN(C(=O)c3ccn(CC4CCN([C@@H]5C=CCCCC5)CC4)c3C)C2)c(N)n1`, for which the inhibition entry in data set [1] was “inactive”.
What is called IC50 is the concentration needed to halve the response being measured. For `CC(C)N1CCN(Cc2cc(C(=O)N3CC(n4cnc5c(N)ncnc54)C3)nn2C)CC1`, in data set [2], the inhibition is greater than 50%. The 50% inhibitory concentration (IC50) in data set [3] is 760 nM.
The term logD denotes the decadic logarithm of the distribution of all forms, ionised or not, between an organic phase and buffer at a given pH. Lower therefore signals a more hydrophilic compound. With `Cc1cc2c(ncn2C2(C)CN(C(=O)c3ccn(CC4CCN([C@H]5C=CCCCC5)CC4)c3)C2)c(N)n1`, the inhibition result in [4], in data set [13], in data set [14] and in data set [17] was “Active” throughout. The Activity result (in the data set with MCF7 [5]; in the data set on U2OS; in [24]) was “Non-Toxic” throughout. The Ratio IC50 in the data set filed under Homo sapiens [6] is 30; in the data set filed under Homo sapiens [7], greater than 60; in the data set filed under Homo sapiens [12], greater than 60; in the data set filed under Homo sapiens [20] it was 30. Moreover, the IC50 is 1300 nM in data set [8]; 1300 to 3000 nM in [9]; 8 nM in data set [3]; 1300 to 3000 nM in data set [15]; 1300 to 3000 nM in [16]; 1300 to 3000 nM in data set [18]. For the same compound, the figures for the IC50 in data set [22] and in data set [23] were 1300 to 3000 nM and 16 nM, respectively. Besides, the inhibition result in data set [10] and in data set [21] was “inactive” throughout. Besides, the inhibition in [11] amounted to 100%. In [19], the logD is 1.3.
With `Cc1nc(N)c2ncn(C3CN(C(=O)c4ccn(CC5CCN(C6CCCCCC6)CC5)c4)C3)c2n1`, the results for the 50% inhibitory concentration (IC50) in [3] and in data set [23] were 23 nM and 4000 nM, respectively.
The like results for `Cc1nc(N)c2ncn(C3(C)CN(C(=O)c4cc(CN5CCN(C6CCCCCC6)CC5)n(C)n4)C3)c2n1` were, in that order, 58 nM and 3000 nM.
In the case of `Cc1nc(N)c2ncn(C3CN(C(=O)c4ccn(CC5CCN(C6C=CCCCC6)CC5)c4)C3)c2n1` (configuration not stated), the inhibition entry in data set [25] was “Active”. In addition, the IC50 in [3] came to 6 nM; in data set [23] it was 23 nM. Besides, in the data set with MCF7 [26], the Activity entry was “Non-Toxic”.
As to `Cc1nc(N)c2ncn(C3CN(C(=O)c4cc(CC5CCN(C6CCCCCC6)CC5)n(C)n4)C3)c2n1`, the IC50 was found to be 32 nM in data set [3] and 3000 nM in [23].
In data set [27], `CCN(C(=O)CO)[C@H]1CN(/C(=N\C#N)Nc2cccc(OC(F)F)c2)N=C1c1ccc(Cl)c(Cl)c1` displayed an inhibition of 100%.
